The values below come from ChEMBL document CHEMBL1144447, “3-[4-(methylsulfonyl)phenyl]-5-(trifluoromethyl)(2-pyridyl) phenyl ketone as a potent and orally active cyclooxygenase-2 selective inhibitor: synthesis and biological evaluation” (J Med Chem, 2005).

Test [1] concerns the target Prostaglandin G/H synthase 1 (Homo sapiens, UniProt P23219). Format: tissue-based, Blood.
Description: In vitro inhibitory concentration against Prostaglandin G/H synthase 1 (COX-1) in human whole blood
The subject of test [2] is Rattus norvegicus. Put plainly: In vivo antiinflammatory potency in rat air pouch model expressed as inhibition of white blood cell infiltration following oral dosage of 6.1 mg/kg ([…]). The class given is functional.
Test [3] concerns the target T1, Prostaglandin G/H synthase 2 (Homo sapiens, UniProt P35354).
T1 sequence (P35354 whole entry): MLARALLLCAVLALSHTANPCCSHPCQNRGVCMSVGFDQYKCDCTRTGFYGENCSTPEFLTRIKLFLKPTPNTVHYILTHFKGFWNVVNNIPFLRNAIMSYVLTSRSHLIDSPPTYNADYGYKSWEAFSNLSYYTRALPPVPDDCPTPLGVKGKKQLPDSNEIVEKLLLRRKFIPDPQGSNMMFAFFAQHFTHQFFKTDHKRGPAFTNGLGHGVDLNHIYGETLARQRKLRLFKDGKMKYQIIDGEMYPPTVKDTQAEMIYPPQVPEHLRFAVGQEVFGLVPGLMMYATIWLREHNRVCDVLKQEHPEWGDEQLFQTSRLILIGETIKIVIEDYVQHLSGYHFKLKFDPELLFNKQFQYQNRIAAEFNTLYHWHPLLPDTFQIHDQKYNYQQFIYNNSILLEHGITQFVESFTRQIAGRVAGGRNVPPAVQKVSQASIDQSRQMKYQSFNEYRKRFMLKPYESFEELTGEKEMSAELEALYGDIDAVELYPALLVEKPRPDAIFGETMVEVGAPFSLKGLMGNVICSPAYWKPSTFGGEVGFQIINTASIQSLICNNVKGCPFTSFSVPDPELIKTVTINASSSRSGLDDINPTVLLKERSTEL
Description: In vitro inhibitory concentration against Prostaglandin G/H synthase 2 (COX-2) in human whole blood

Test [4] deals with Rattus norvegicus. Put plainly: In vivo antiinflammatory potency in rat air pouch model expressed as inhibition of PGE-2 production following oral dosage of 6.1 mg/kg ([…]). The class given is functional.
Test [5] is filed under the species Rattus norvegicus. Briefly: animal or person. The following applies: po, read-out: Inhibition.
Description: In vivo antiinflammatory potency in rat air pouch model expressed as inhibition of PGE-2 production following oral dosage of 5.4 mg/kg (15 mmol)
For test [6], the species on record is Rattus norvegicus. Briefly: animal or person. The following applies: po, read-out: Inhibition. The source holds these as a separate data set.
Description: In vivo antiinflammatory potency in rat air pouch model expressed as inhibition of white blood cell infiltration following oral dosage of 5.4 mg/kg (15 mmol)

Prostaglandin G/H synthase 1, sequence (P23219 whole entry): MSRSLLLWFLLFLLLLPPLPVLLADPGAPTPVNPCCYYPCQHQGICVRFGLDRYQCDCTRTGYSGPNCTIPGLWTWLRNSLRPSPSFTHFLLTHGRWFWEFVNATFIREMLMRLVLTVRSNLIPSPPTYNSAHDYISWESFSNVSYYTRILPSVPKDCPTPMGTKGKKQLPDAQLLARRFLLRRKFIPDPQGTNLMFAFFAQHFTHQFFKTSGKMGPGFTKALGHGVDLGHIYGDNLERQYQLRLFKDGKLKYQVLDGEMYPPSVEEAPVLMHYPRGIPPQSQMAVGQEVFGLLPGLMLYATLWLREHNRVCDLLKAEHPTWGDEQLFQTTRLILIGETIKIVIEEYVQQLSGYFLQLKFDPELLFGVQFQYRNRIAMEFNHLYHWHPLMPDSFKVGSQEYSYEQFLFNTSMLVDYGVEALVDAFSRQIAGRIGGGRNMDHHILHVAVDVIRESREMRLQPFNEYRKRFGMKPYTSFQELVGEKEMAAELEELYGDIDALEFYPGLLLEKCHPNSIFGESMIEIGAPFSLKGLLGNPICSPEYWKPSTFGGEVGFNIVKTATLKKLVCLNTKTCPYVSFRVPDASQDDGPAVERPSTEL

Regarding `CS(=O)(=O)c1ccc(-c2cc(C(F)(F)F)cnc2C(=O)c2ccccc2)cc1`, the IC50 in test [1] worked out at 14 µM; in test [3], 0.25 µM. Besides, the inhibition in vivo at 6.1 mg/kg in test [2] was determined as 46.2%; in test [4] it was 58.9%.
Compound `Cc1ccc(-c2ncc(Cl)cc2-c2ccc(S(C)(=O)=O)cc2)cn1` [ETORICOXIB] gave a 50% inhibitory concentration (IC50) in test [1] of more than 200 µM. For the same compound, the figures for the inhibition in vivo at 5.4 mg/kg in test [5] and in test [6] were 61% and 45%, respectively.

As usually defined, the IC50 is the midpoint of a concentration-inhibition curve. Low values mean greater potency, high ones weaker potency.
